# How the values were obtained:
# Homo sapiens [1] = assay: Effect on sleep parameter in insomnia patient assessed as total sleep time at 50 mg, po by polysomnography; type: functional
# [2] = Elimination half life in human at 1 to 1000 mg administered as single dose; type: ADME, organism-based; conditions: in vivo, read-out: beta t1/2 (converted)
# Homo sapiens [3] = assay: Effect on sleep parameter in insomnia patient assessed as total sleep time at 100 mg, po by polysomnography; type: functional
# Homo sapiens [4] = assay: Effect on sleep parameter in insomnia patient assessed as wake after sleep onset time at 50 mg, po by polysomnography; type: functional
# Homo sapiens [5] = assay: Effect on sleep parameter in insomnia patient assessed as latency to persistent sleep time at 100 mg, po by polysomnography; type: functional
# [6] = Oral bioavailability in Wistar rat; type: ADME, organism-based; conditions: in vivo
# Homo sapiens [7] = assay: Effect on sleep parameter in insomnia patient assessed as wake after sleep onset time at 400 mg, po by polysomnography; type: functional
# Homo sapiens [8] = assay: Effect on sleep parameter in insomnia patient assessed as sleep efficiency at 400 mg, po by polysomnography; type: functional
# Rattus norvegicus [9] = assay: Effect on sleep parameter in Wistar rat assessed as NREM sleep duration time at 100 mg/kg, po measured over 12 hrs (reference value: 243 +/- 8 min); type: functional
# Homo sapiens [10] = assay: Effect on sleep parameter in insomnia patient assessed as sleep efficiency at 200 mg, po by polysomnography; type: functional
# Homo sapiens [11] = assay: Effect on sleep parameter in insomnia patient assessed as latency to persistent sleep time at 400 mg, po by polysomnography; type: functional
# [12] = Ratio of drug level in brain to plasma in Wistar rat; type: ADME, cell-free; conditions: read-out: BPR
# Homo sapiens [13] = assay: Effect on sleep parameter in insomnia patient assessed as latency to persistent sleep time at 50 mg, po by polysomnography; type: functional
# [14] = Oral bioavailability in human; type: ADME, organism-based; conditions: in vivo
# Homo sapiens [15] = assay: Effect on sleep parameter in insomnia patient assessed as total sleep time at 200 mg, po by polysomnography; type: functional
# [16] = Plasma protein binding in Wistar rat; type: ADME, cell-free; conditions: read-out: PPB (converted)
# Rattus norvegicus [17] = assay: Effect on sleep parameter in Wistar rat assessed as latency to persistent NREM time at 100 mg/kg, po measured over 12 hrs (reference value: 40 +/- 3 min); type: functional
# Homo sapiens [18] = assay: Effect on sleep parameter in insomnia patient assessed as sleep efficiency at 50 mg, po by polysomnography; type: functional
# Rattus norvegicus [19] = assay: Effect on sleep parameter in Wistar rat assessed as latency to persistent REM time at 100 mg/kg, po measured over 12 hrs (reference value: 101 +/- 17 min); type: functional
# Homo sapiens [20] = assay: Effect on sleep parameter in insomnia patient assessed as total sleep time at 400 mg, po by polysomnography; type: functional
# Rattus norvegicus [21] = assay: Effect on sleep parameter in Wistar rat assessed as REM sleep duration time at 100 mg/kg, po measured over 12 hrs (reference value: 33 +/- 4 min); type: functional
# [22] = Ratio of drug level in CSF to plasma in Wistar rat
# [23] = Half life in iv dosed Wistar rat; type: ADME, organism-based; conditions: in vivo
# Homo sapiens [24] = assay: Effect on sleep parameter in insomnia patient assessed as wake after sleep onset time at 100 mg, po by polysomnography; type: functional
# Homo sapiens [25] = assay: Effect on sleep parameter in insomnia patient assessed as latency to persistent sleep time at 200 mg, po by polysomnography; type: functional
# Canis familiaris [26] = assay: Effect on sleep parameter in po dosed Beagle dog by EEG analysis; type: functional, Canis lupus familiaris
# Homo sapiens [27] = assay: Effect on sleep parameter in insomnia patient assessed as wake after sleep onset time at 200 mg, po by polysomnography; type: functional
# [28] = Tmax in human at 1 to 1000 mg administered as single dose; type: ADME, organism-based; conditions: in vivo
# [29] = Oral bioavailability in Beagle dog; type: ADME, organism-based, Canis lupus familiaris; conditions: in vivo
# Rattus norvegicus [30] = assay: Effect on sleep parameter in po dosed Wistar rat by EEG analysis; type: functional
# Homo sapiens [31] = assay: Effect on sleep parameter in insomnia patient assessed as sleep efficiency at 100 mg, po by polysomnography; type: functional
# Rattus norvegicus [32] = assay: Effect on sleep parameter in po dosed rat by EEG analysis; type: functional
# [33] = Oral bioavailability in dog; type: ADME, organism-based, Canis lupus familiaris; conditions: in vivo
# [34] = Ratio of drug level in CSF to plasma in rat; type: ADME, cell-free
# Canis familiaris [35] = assay: Effect on sleep parameter in po dosed dog by EEG analysis; type: functional, Canis lupus familiaris
# [36] = Clearance in iv dosed rat; type: ADME, organism-based; conditions: in vivo
# Rattus norvegicus [37] = species on record: Rattus norvegicus; assay: Receptor occupancy at OX2R in rat brain assessed as drug level in plasma; type: functional
# [38] = Half life in iv dosed dog; type: ADME, organism-based, Canis lupus familiaris; conditions: in vivo
# [39] = Plasma protein binding in human; type: ADME, cell-free; conditions: read-out: PPB (converted)
# [40] = Clearance in iv dosed dog; type: ADME, organism-based, Canis lupus familiaris; conditions: in vivo
# Orexin receptor type 2 = target: T1, Orexin receptor type 2 (Homo sapiens, UniProt O43614); assay: Antagonist activity at human OX2R expressed in CHO cell membranes assessed as inhibition of orexin-A-induced intracellular calcium release after 120 mins; type: functional, cell-based
# T1 sequence (O43614 whole entry): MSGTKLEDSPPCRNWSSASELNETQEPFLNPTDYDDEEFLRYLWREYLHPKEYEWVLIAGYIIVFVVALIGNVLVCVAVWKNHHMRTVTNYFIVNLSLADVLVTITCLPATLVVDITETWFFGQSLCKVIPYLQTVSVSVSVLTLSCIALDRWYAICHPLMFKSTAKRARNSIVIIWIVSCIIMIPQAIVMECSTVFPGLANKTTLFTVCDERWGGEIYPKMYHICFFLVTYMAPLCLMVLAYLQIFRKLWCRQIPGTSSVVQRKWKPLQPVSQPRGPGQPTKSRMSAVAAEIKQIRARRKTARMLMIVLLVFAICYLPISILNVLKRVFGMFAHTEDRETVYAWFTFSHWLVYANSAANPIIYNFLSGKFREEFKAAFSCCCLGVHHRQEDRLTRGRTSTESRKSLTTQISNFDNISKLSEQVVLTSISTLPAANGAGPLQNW
# [41] = Plasma protein binding in rat; type: ADME, cell-free; conditions: read-out: PPB (converted)
# [42] = Half life in iv dosed rat; type: ADME, organism-based; conditions: in vivo
# [43] = Ratio of drug level in brain to plasma in rat; type: ADME, cell-free; conditions: read-out: BPR
# [44] = Plasma protein binding in dog; type: ADME, cell-free, Canis lupus familiaris; conditions: read-out: PPB (converted)
# [45] = target: T2, Orexin/Hypocretin receptor type 1 (Homo sapiens, UniProt O43613); assay: Antagonist activity at human OX1R expressed in CHO cell membranes assessed as inhibition of orexin-A-induced intracellular calcium release after 120 mins; type: functional, cell-based
# T2 sequence (O43613 whole entry): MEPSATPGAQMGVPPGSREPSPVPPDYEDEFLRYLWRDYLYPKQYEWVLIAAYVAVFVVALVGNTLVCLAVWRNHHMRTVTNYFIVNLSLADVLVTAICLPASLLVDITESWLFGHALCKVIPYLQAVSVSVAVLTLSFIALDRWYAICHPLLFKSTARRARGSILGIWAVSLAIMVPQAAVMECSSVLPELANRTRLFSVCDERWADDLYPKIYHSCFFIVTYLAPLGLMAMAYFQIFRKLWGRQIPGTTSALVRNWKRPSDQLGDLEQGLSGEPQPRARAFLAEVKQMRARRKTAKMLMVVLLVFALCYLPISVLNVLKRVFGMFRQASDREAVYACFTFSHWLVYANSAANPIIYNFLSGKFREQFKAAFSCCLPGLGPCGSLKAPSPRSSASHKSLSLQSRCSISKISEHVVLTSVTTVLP
# [46] = target: T2, Orexin/Hypocretin receptor type 1; assay: Binding affinity to OX1R (unknown origin)
# [47] = Oral bioavailability in rat; type: ADME, organism-based; conditions: in vivo
smiles,measurement,setting,value
CNC(=O)[C@@H](c1ccccc1)N1CCc2cc(OC)c(OC)cc2[C@@H]1CCc1ccc(C(F)(F)F)cc1 [ALMOREXANT],Time,Homo sapiens [1],15.8 min
same,half-life,[2],13.1 h
same,Time,Homo sapiens [3],21.4 min
same,Time,Homo sapiens [4],-6.7 min
same,Time,Homo sapiens [5],-10.4 min
same,bioavailability,[6],8%
same,Time,Homo sapiens [7],-54 min
same,Activity,Homo sapiens [8],14.4%
same,Time,Rattus norvegicus [9],286 min
same,Activity,Homo sapiens [10],8.2%
same,Time,Homo sapiens [11],-18 min
same,Kp,[12],0.3
same,Time,Homo sapiens [13],-5.7 min
same,bioavailability,[14],11%
same,Time,Homo sapiens [15],39.3 min
same,fraction unbound,[16],0.01
same,Time,Rattus norvegicus [17],30 min
same,Activity,Homo sapiens [18],3.3%
same,Time,Rattus norvegicus [19],91 min
same,Time,Homo sapiens [20],69.7 min
same,Time,Rattus norvegicus [21],50 min
same,Kp,[22],0.002
same,half-life,[23],8 h
same,Time,Homo sapiens [24],-20.1 min
same,Time,Homo sapiens [25],-10.4 min
same,Activity,Canis familiaris [26],100 mg/kg
same,Time,Homo sapiens [27],-34.3 min
same,Tmax,[28],0.7 h
same,bioavailability,[29],18%
same,Activity,Rattus norvegicus [30],30 mg/kg
same,Activity,Homo sapiens [31],4.6%
Cc1ccc(-c2ncccn2)c(C(=O)N2C[C@H](COc3ccc(F)cn3)CC[C@H]2C)c1 [FILOREXANT],Activity,Rattus norvegicus [32],3 mg/kg
same,bioavailability,[33],26%
same,Kp,[34],0.04
same,Activity,Canis familiaris [35],0.25 mg/kg
same,clearance,[36],67 mL/min/kg
same,Occ90,Rattus norvegicus [37],142 nM
same,half-life,[38],2.3 h
same,fraction unbound,[39],0.025
same,clearance,[40],5.8 mL/min/kg
same,IC50,Orexin receptor type 2,11 nM
same,fraction unbound,[41],0.05
same,half-life,[42],0.5 h
same,Kp,[43],1.1
same,fraction unbound,[44],0.06
same,IC50,[45],11 nM
same,Ki,[46],2.2 nM
same,bioavailability,[47],25%
